Results: paper PMC7055022, “A novel TLR7 agonist as adjuvant to stimulate high quality HBsAg-specific immune responses in an HBV mouse model” (Journal of Translational Medicine, 2020)

Target: T1, human TLR7 (hTLR7) (Homo sapiens, UniProt Q9NYK1)
T1 sequence (Q9NYK1 27-1049): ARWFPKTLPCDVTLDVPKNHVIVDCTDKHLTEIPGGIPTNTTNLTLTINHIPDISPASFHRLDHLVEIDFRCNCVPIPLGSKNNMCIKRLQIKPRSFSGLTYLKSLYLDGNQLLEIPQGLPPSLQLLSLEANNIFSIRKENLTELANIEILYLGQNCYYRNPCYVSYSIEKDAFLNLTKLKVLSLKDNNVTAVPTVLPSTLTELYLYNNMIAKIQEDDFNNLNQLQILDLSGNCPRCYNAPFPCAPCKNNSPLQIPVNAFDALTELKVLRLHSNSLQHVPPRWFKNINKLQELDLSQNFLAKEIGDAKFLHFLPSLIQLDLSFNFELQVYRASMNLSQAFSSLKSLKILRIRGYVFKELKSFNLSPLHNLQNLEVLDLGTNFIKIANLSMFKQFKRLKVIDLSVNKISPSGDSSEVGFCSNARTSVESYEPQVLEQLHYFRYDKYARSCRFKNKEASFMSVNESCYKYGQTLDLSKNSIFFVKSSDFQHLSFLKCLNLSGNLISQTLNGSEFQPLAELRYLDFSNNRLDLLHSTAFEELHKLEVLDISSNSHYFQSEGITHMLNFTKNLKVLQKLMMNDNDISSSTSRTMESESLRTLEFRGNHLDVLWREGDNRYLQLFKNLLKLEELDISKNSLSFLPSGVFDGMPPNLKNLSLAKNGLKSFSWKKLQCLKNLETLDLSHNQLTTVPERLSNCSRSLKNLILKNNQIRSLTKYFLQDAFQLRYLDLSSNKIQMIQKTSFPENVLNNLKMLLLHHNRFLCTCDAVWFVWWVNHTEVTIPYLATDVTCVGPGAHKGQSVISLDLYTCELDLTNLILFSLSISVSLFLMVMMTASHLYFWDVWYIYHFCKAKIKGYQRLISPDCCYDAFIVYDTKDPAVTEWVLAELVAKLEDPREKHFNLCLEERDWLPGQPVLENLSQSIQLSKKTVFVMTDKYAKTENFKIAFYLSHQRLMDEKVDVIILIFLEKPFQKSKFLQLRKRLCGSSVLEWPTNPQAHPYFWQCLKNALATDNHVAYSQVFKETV
Assay: HEK-Blue hTLR7 SEAP/NF-κB reporter assay (agonist; inactive in hTLR8 cells)
Type: cell-based

C=C(CC)C(=O)c1ccc(OCC(=O)NCc2ccc(Cn3c(O)nc4c(N)nc(OCCOC)nc43)cc2)c(Cl)c1Cl [compound 4, N-(4-((6-amino-8-hydroxy-2-(2-methoxyethoxy)-9H-purin-9-yl)methyl)benzyl)-2-(2,3-dichloro-4-(2-methylenebutanoyl)phenoxy)acetamide]
HEK-Blue hTLR7 SEAP/NF-κB reporter assay (agonist; inactive in hTLR8 cells): T7-EA induced more potent SEAP reaction than T7 in HEK-Blue hTLR7 reporter cells
